Laboratory results from patent US9850283B2, “Macrocyclic inhibitors of the PD-1/PD-L1 and CD80(B7-1)/PD-L1 protein/protein interactions” (BRISTOL-MYERS SQUIBB COMPANY, priority 2013, dated 2017).
Read-outs that look alike come from different tables or passages of the source. Positions of bridges follow the written chain, without caps; N, C: chain ends. Non-standard residues stand in square brackets, D forms with d. Residues, ends and D or L forms follow the SMILES beside them. Pro(trans-4-F) = O=C(O)[C@@H]1C[C@@H](F)CN1; Bta = N[C@@H](Cc1csc2ccccc12)C(=O)O; NMeNle = CCCC[C@H](NC)C(=O)O; NMeA = CN[C@@H](C)C(=O)O; Orn = NCCC[C@H](N)C(=O)O; Dap = NC[C@H](N)C(=O)O; Sar = CNCC(=O)O

Tests used:
[1] = biological target: T1, LK35.2-hPD-L1 cells / PE-labeled PD-1-Ig (Homo sapiens, UniProt Q9NZQ7); assay: LK35.2-hPD-L1 cell binding high-content screening assay; assay type: cell-based; conditions: cell binding assay, cell line not given
T1 construct: expressed in transfected cells; host or cells: LK35.2 mouse B cell line
How it was run: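 Mouse LK35.2 B cells stably overexpressing human PD-L1 were cultured overnight in RPMI with 10% FCS, then given compound and PE-labeled human PD-1-Ig (1 nM final) for 1 h at 37 °C. After three dPBS washes, bound fluorescence was quantified by high-content imaging.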

[2] = biological target: T2, Human PD-L1/PD-1 (Homo sapiens, UniProt Q9NZQ7); assay: HTRF PD-1-Ig/PD-L1-His binding assay (human PD-L1)
T2 construct: made in house; host or cells: HEK293T
How it was run: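 Soluble Fc-fused PD-1 and His-tagged PD-L1 (truncated before the transmembrane region) were combined in dPBS with 0.1% (w/v) BSA and 0.05% (v/v) Tween-20. Binding was read by HTRF using europium cryptate anti-Ig antibody (1 nM final) and APC anti-His antibody (20 nM final).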

[3] = cluster symbol, read-out: CBA IC50 cluster
[4] = cluster symbol, read-out: HTRF IC50 cluster
[5] = value given instead of cluster, read-out: CBA IC50 value
[6] = value given instead of cluster, read-out: HTRF IC50 value

T1 sequence (Q9NZQ7 19-290): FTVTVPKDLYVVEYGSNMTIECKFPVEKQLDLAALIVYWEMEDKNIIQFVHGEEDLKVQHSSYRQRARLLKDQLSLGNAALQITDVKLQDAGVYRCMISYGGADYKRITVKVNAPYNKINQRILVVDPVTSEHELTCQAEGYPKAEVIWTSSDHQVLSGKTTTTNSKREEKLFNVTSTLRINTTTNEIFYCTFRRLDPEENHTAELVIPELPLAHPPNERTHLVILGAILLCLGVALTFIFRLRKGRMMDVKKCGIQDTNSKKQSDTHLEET
T2 sequence (Q9NZQ7 with tags, fused parts or gaps): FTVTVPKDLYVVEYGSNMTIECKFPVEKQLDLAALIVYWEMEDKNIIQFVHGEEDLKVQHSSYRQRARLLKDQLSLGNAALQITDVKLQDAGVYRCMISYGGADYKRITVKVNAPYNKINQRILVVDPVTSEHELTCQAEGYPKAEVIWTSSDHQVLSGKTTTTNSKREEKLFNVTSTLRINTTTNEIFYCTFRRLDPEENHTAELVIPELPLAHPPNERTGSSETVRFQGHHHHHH

SMILES | IC50 [1, 3] [nM] | IC50 [2, 4] [nM] | IC50 [1, 5] [nM] | IC50 [2, 6] [nM]
CCCC[C@H]1C(=O)N(C)[C@@H](CCCC)C(=O)N[C@@H](CN)C(=O)N[C@H](C(=O)NCC(N)=O)CSCC(=O)N[C@@H](Cc2ccccc2)C(=O)N(C)[C@@H](C)C(=O)N[C@@H](CC(N)=O)C(=O)N2CCC[C@H]2C(=O)N[C@@H](Cc2cnc[nH]2)C(=O)N[C@@H](CC(C)C)C(=O)N(C)CC(=O)N[C@@H](Cc2c[nH]c3ccccc23)C(=O)N[C@@H](CO)C(=O)N[C@@H](Cc2c[nH]c3ccccc23)C(=O)N1C [Example 5007] ({CH2CO}-F[NMeA]NPHL[Sar]WSW[NMeNle][NMeNle][Dap]CG-NH2; thioether N-14) | 4.78 to 72.9 | 6.76 to 30.3 | – | –
CCCC[C@H]1C(=O)N(C)[C@@H](CCCC)C(=O)N[C@@H](CCCNC(=N)N)C(=O)N[C@H](C(=O)NCC(N)=O)CSCC(=O)N[C@@H](Cc2ccccc2)C(=O)N(C)[C@@H](C)C(=O)N[C@@H](CC(N)=O)C(=O)N2CCC[C@H]2C(=O)N[C@@H](Cc2c[nH]cn2)C(=O)N[C@@H](CC(C)C)C(=O)N(C)CC(=O)N[C@@H](Cc2c[nH]c3ccccc23)C(=O)N[C@@H]([C@@H](C)O)C(=O)N[C@@H](Cc2c[nH]c3ccccc23)C(=O)N1C [Example 5008] ({CH2CO}-F[NMeA]NPHL[Sar]WTW[NMeNle][NMeNle]RCG-NH2; thioether N-14) | – | – | 22.7 | 18.1
CCCC[C@H]1C(=O)N2CCC[C@@H]2C(=O)N[C@@H](CCCNC(=N)N)C(=O)N[C@H](C(=O)NCC(N)=O)CSCC(=O)N[C@@H](Cc2ccccc2)C(=O)N(C)[C@@H](C)C(=O)N[C@@H](CC(N)=O)C(=O)N2CCC[C@H]2C(=O)N[C@@H](Cc2cnc[nH]2)C(=O)N[C@@H](CC(C)C)C(=O)N(C)CC(=O)N[C@@H](Cc2c[nH]c3ccccc23)C(=O)N[C@@H](CO)C(=O)N[C@@H](Cc2c[nH]c3ccccc23)C(=O)N1C [Example 5009] (HELM PEPTIDE1{[O=C(C[*:3])[*:2]].F.[meA].N.P.H.L.[Sar].W.S.W.[CCCC[C@@H](C(=O)[*:2])N(C)[*:1]].[dP].R.C.G.[am]}$PEPTIDE1,PEPTIDE1,1:R3-15:R3$$$V2.0) | > 74.3 | – | – | 30.5
CCCC[C@H]1C(=O)N2CCC[C@@H]2C(=O)N[C@@H](CCCN)C(=O)N[C@H](C(=O)NCC(N)=O)CSCC(=O)N[C@@H](Cc2ccc(O)cc2)C(=O)N(C)[C@@H](C)C(=O)N[C@@H](CC(N)=O)C(=O)N2CCC[C@H]2C(=O)N[C@@H](Cc2cnc[nH]2)C(=O)N[C@@H](CC(C)C)C(=O)N2CCC[C@H]2C(=O)N[C@@H](Cc2c[nH]c3ccccc23)C(=O)N[C@@H](CO)C(=O)N[C@@H](Cc2csc3ccccc23)C(=O)N1C [Example 5010] ({CH2CO}-Y[NMeA]NPHLPWS[Bta][NMeNle][dP][Orn]CG-NH2; thioether N-14) | 4.78 to 72.9 | 6.76 to 30.3 | – | –
CCCC[C@H]1C(=O)N2CCC[C@@H]2C(=O)N[C@@H](CCCN)C(=O)N[C@H](C(=O)NCC(N)=O)CSCC(=O)N[C@@H](Cc2ccc(O)cc2)C(=O)N(C)[C@@H](C)C(=O)N[C@@H](CC(N)=O)C(=O)N2CCC[C@H]2C(=O)N[C@@H](Cc2cnc[nH]2)C(=O)N[C@@H](CC(C)C)C(=O)N2CCC[C@H]2C(=O)N[C@@H](Cc2c[nH]c3ccccc23)C(=O)N[C@@H](CO)C(=O)N[C@@H](Cc2c[nH]c3ccccc23)C(=O)N1C [Example 5011] (HELM PEPTIDE1{[O=C(C[*:3])[*:2]].Y.[meA].N.P.H.L.P.W.S.W.[CCCC[C@@H](C(=O)[*:2])N(C)[*:1]].[dP].[Orn].C.G.[am]}$PEPTIDE1,PEPTIDE1,1:R3-15:R3$$$V2.0) | 4.78 to 72.9 | 6.76 to 30.3 | – | –
CCCC[C@H]1C(=O)N(C)[C@@H](CCCC)C(=O)N[C@@H](CCCNC(=N)N)C(=O)N[C@H](C(=O)NCC(N)=O)CSCC(=O)N[C@@H](Cc2ccccc2)C(=O)N(C)[C@@H](C)C(=O)N[C@@H](CC(N)=O)C(=O)N2C[C@H](F)C[C@H]2C(=O)N[C@@H](Cc2cnc[nH]2)C(=O)N[C@@H](CC(C)C)C(=O)N(C)CC(=O)N[C@@H](Cc2c[nH]c3ccccc23)C(=O)N[C@@H](CO)C(=O)N[C@@H](Cc2c[nH]c3ccccc23)C(=O)N1C [Example 5012] ({CH2CO}-F[NMeA]N[Pro(trans-4-F)]HL[Sar]WSW[NMeNle][NMeNle]RCG-NH2; thioether N-14) | > 74.3 | > 30.5 | – | –
CCCC[C@H]1C(=O)N(C)[C@@H](CCCC)C(=O)N[C@@H](Cc2cnc[nH]2)C(=O)N[C@H](C(=O)NCC(N)=O)CSCC(=O)N[C@@H](Cc2ccccc2)C(=O)N(C)[C@@H](C)C(=O)N[C@@H](CC(N)=O)C(=O)N2CCC[C@H]2C(=O)N[C@@H](Cc2cnc[nH]2)C(=O)N[C@@H](CC(C)C)C(=O)N(C)CC(=O)N[C@@H](Cc2c[nH]c3ccccc23)C(=O)N[C@@H](CO)C(=O)N[C@@H](Cc2c[nH]c3ccccc23)C(=O)N1C [Example 5013] ({CH2CO}-F[NMeA]NPHL[Sar]WSW[NMeNle][NMeNle]HCG-NH2; thioether N-14) | > 74.3 | > 30.5 | – | –
CCCC[C@H]1C(=O)N(C)[C@@H](CCCC)C(=O)N[C@@H](CC(N)=O)C(=O)N[C@H](C(=O)NCC(N)=O)CSCC(=O)N[C@@H](Cc2ccccc2)C(=O)N(C)[C@@H](C)C(=O)N[C@@H](CC(N)=O)C(=O)N2CCC[C@H]2C(=O)N[C@@H](Cc2cnc[nH]2)C(=O)N[C@@H](CC(C)C)C(=O)N(C)CC(=O)N[C@@H](Cc2c[nH]c3ccccc23)C(=O)N[C@@H](CO)C(=O)N[C@@H](Cc2c[nH]c3ccccc23)C(=O)N1C [Example 5014] ({CH2CO}-F[NMeA]NPHL[Sar]WSW[NMeNle][NMeNle]NCG-NH2; thioether N-14) | 4.78 to 72.9 | 6.76 to 30.3 | – | –
CCCC[C@H]1C(=O)N(C)[C@@H](CCCC)C(=O)NCC(=O)N[C@H](C(=O)NCC(N)=O)CSCC(=O)N[C@@H](Cc2ccccc2)C(=O)N(C)[C@@H](C)C(=O)N[C@@H](CC(N)=O)C(=O)N2CCC[C@H]2C(=O)N[C@@H](Cc2cnc[nH]2)C(=O)N[C@@H](CC(C)C)C(=O)N(C)CC(=O)N[C@@H](Cc2c[nH]c3ccccc23)C(=O)N[C@@H](CO)C(=O)N[C@@H](Cc2c[nH]c3ccccc23)C(=O)N1C [Example 5015] ({CH2CO}-F[NMeA]NPHL[Sar]WSW[NMeNle][NMeNle]GCG-NH2; thioether N-14) | 4.78 to 72.9 | 6.76 to 30.3 | – | –
CCCC[C@H]1C(=O)N(C)[C@@H](CCCC)C(=O)N[C@@H](C(C)C)C(=O)N[C@H](C(=O)NCC(N)=O)CSCC(=O)N[C@@H](Cc2ccccc2)C(=O)N(C)[C@@H](C)C(=O)N[C@@H](CC(N)=O)C(=O)N2CCC[C@H]2C(=O)N[C@@H](Cc2cnc[nH]2)C(=O)N[C@@H](CC(C)C)C(=O)N(C)CC(=O)N[C@@H](Cc2c[nH]c3ccccc23)C(=O)N[C@@H](CO)C(=O)N[C@@H](Cc2c[nH]c3ccccc23)C(=O)N1C [Example 5016] ({CH2CO}-F[NMeA]NPHL[Sar]WSW[NMeNle][NMeNle]VCG-NH2; thioether N-14) | 4.78 to 72.9 | 6.76 to 30.3 | – | –
CCCC[C@H]1C(=O)N(C)[C@@H](CCCC)C(=O)N[C@@H](CC(C)C)C(=O)N[C@H](C(=O)NCC(N)=O)CSCC(=O)N[C@@H](Cc2ccccc2)C(=O)N(C)[C@@H](C)C(=O)N[C@@H](CC(N)=O)C(=O)N2CCC[C@H]2C(=O)N[C@@H](Cc2cnc[nH]2)C(=O)N[C@@H](CC(C)C)C(=O)N(C)CC(=O)N[C@@H](Cc2c[nH]c3ccccc23)C(=O)N[C@@H](CO)C(=O)N[C@@H](Cc2c[nH]c3ccccc23)C(=O)N1C [Example 5017] ({CH2CO}-F[NMeA]NPHL[Sar]WSW[NMeNle][NMeNle]LCG-NH2; thioether N-14) | – | – | 12.9 | 11.3
CCCC[C@H]1C(=O)N(C)[C@@H](CCCC)C(=O)N[C@@H]([C@@H](C)CC)C(=O)N[C@H](C(=O)NCC(N)=O)CSCC(=O)N[C@@H](Cc2ccccc2)C(=O)N(C)[C@@H](C)C(=O)N[C@@H](CC(N)=O)C(=O)N2CCC[C@H]2C(=O)N[C@@H](Cc2cnc[nH]2)C(=O)N[C@@H](CC(C)C)C(=O)N(C)CC(=O)N[C@@H](Cc2c[nH]c3ccccc23)C(=O)N[C@@H](CO)C(=O)N[C@@H](Cc2c[nH]c3ccccc23)C(=O)N1C [Example 5018] ({CH2CO}-F[NMeA]NPHL[Sar]WSW[NMeNle][NMeNle]ICG-NH2; thioether N-14) | 4.78 to 72.9 | 6.76 to 30.3 | – | –
CCCC[C@H]1C(=O)N(C)[C@@H](CCCC)C(=O)N[C@@H](CCCNC(=N)N)C(=O)N[C@H](C(=O)NCC(N)=O)CSCC(=O)N[C@@H](Cc2ccccc2)C(=O)N(C)[C@@H](C)C(=O)N[C@@H](CO)C(=O)N2CCC[C@H]2C(=O)N[C@@H](Cc2cnc[nH]2)C(=O)N[C@@H](CC(C)C)C(=O)N(C)CC(=O)N[C@@H](Cc2c[nH]c3ccccc23)C(=O)N[C@@H](CO)C(=O)N[C@@H](Cc2c[nH]c3ccccc23)C(=O)N1C [Example 5019] ({CH2CO}-F[NMeA]SPHL[Sar]WSW[NMeNle][NMeNle]RCG-NH2; thioether N-14) | 4.78 to 72.9 | 6.76 to 30.3 | – | –
CCCC[C@H]1C(=O)N(C)[C@@H](CCCC)C(=O)N[C@@H](CCCNC(=N)N)C(=O)N[C@H](C(=O)NCC(N)=O)CSCC(=O)N[C@@H](Cc2ccccc2)C(=O)N(C)[C@@H](C)C(=O)N[C@@H]([C@@H](C)O)C(=O)N2CCC[C@H]2C(=O)N[C@@H](Cc2cnc[nH]2)C(=O)N[C@@H](CC(C)C)C(=O)N(C)CC(=O)N[C@@H](Cc2c[nH]c3ccccc23)C(=O)N[C@@H](CO)C(=O)N[C@@H](Cc2c[nH]c3ccccc23)C(=O)N1C [Example 5020] ({CH2CO}-F[NMeA]TPHL[Sar]WSW[NMeNle][NMeNle]RCG-NH2; thioether N-14) | > 74.3 | > 30.5 | – | –
